Results as given in publication PMC7805408, “Filaggrin Polymorphisms and the Uptake of Chemicals through the Skin—A Human Experimental Study” (Environmental Health Perspectives, 2021).

Experiments:
[1] = Population toxicokinetic analysis of dermal absorption and disposition (three-compartment model, Monolix); type: in vivo, human; conditions: for Lag time (mean±SD): dermal absorption; for Lag time (mean±SD) / Absorption rate constant (mean±SD): unadjusted; for Absorption rate constant (mean±SD): dermal; for Rate constant K21 (mean ± SD): from the central to the peripheral compartment; for Rate constant K12 (mean ± SD): from the peripheral to the central compartment
Protocol: Dermal absorption and disposition were assessed by population toxicokinetic analysis. A three-compartment structural model representing skin and central and peripheral tissues was used (Figure 2). The skin compartment encompasses a lag time for skin penetration ( Tlag ) and an absorption rate constant ( ka ). Urinary excretion from the central compartment was described by an elimination rate constant ( ke ), and exchange between the central and peripheral compartments was described by two rate constants ( k12 and k21 ). All rate constants are first order.
Figure 2. Compartmental model used in the toxicokinetic analysis: lag time for skin penetration ( Tlag , h), first order skin absorption constant ( Ka , h-1), volume of central compartment (V, L), peripheral compartment (P) first order transfer rate constants ( k12 and k21 , h^−1 ), and first order elimination rate constant (k, h^−1 ).
The input data were the dermally applied dose (nmol) at time zero and the mid–time point (h) and the excretion rate (nmol/h) of each chemical in the urine samples. Subjects excluded from the AUC analysis were also excluded from the toxicokinetic analysis (one FLG null carrier and one wt carrier for oxybenzone).
The software Monolix (version 2019R2; Lixoft) was used to estimate the model parameters. The built-in statistical model consists of an observation model and an individual model based on the structural toxicokinetic model. The observational model was set to a normal distribution, and a residual error model included in the observational model was used as proposed by the software after initial analysis. A lognormally distributed random effect was added to all model parameters. Correlations between parameters were accounted for if proposed by the software. The different genotypes (FLG null/wt, and FLG null/wt CNV20–22/wt CNV23–24) were entered as categorical covariates.

[2] = set-up: method as in Okereke et al. 1993; conditions: rats; ref Okereke et al. 1993; cited from earlier work
[3] = system: estrogen receptor 1, androgen receptor, and cytochrome P450 aromatase B; set-up: method as in Blüthgen et al. 2012; conditions: zebrafish, 84μg/L; ref Blüthgen et al. 2012; cited from earlier work
[4] = set-up: method as in Santamaria et al. 2020; conditions: ref Santamaria et al. 2020; cited from earlier work
[5] = ref http://www.popstoolkit.com/tools/HHRA/TDI_USEPA.aspx; cited from earlier work
[6] = system: aryl hydrocarbon receptor; set-up: method as in Medjakovic et al. 2014; conditions: in vitro; ref Medjakovic et al. 2014; cited from earlier work
[7] = in vivo, po; cited from earlier work
[8] = ref https://efsa.onlinelibrary.wiley.com/doi/pdf/10.2903/j.efsa.2006.61r; cited from earlier work
[9] = FLG null carriers, null/CNV grouping
[10] = FLG null, null vs wt grouping (Table S4)
[11] = FLG null, null/CNV grouping (Table S9)
[12] = FLG wt, null vs wt grouping (Table S4)

SMILES | Absorption rate constant (mean ± SD), adjusted for BMI, age and sex ([1]; FLG null (Table S7)) [h⁻¹] | Lag time (mean ± SD), adjusted for BMI, age and sex ([1]; FLG null (Table S7)) [h] | Excretion rate constant K (mean ± SD) ([1]; FLG null (Table S9)) [h⁻¹] | Lag time (mean±SD) [1, 9] [h] | Absorption rate constant (mean±SD) [1, 9] [h⁻¹] | Dermal absorption rate constant (mean ± SD) [1, 10] [h⁻¹] | Lag time for dermal absorption (mean ± SD) [1, 10] [h] | Volume of central compartment (mean ± SD) [1, 11] [L] | Absorption rate constant (mean ± SD), adjusted for BMI, age and sex ([1]; FLG wt CNV20–22 (Table S7)) [h⁻¹] | Lag time (mean ± SD), adjusted for BMI, age and sex ([1]; FLG wt CNV20–22 (Table S7)) [h] | Excretion rate constant K (mean ± SD) ([1]; FLG wt CNV20–22 (Table S9)) [h⁻¹] | Volume of central compartment (mean ± SD) ([1]; FLG wt CNV20–22 (Table S9)) [L] | Lag time (mean±SD) ([1]; FLG wt CNV20–22 carriers) [h] | Absorption rate constant (mean±SD) ([1]; FLG wt CNV20–22 carriers) [h⁻¹] | Absorption rate constant (mean ± SD), adjusted for BMI, age and sex ([1]; FLG wt CNV23–24 (Table S7)) [h⁻¹] | Lag time (mean ± SD), adjusted for BMI, age and sex ([1]; FLG wt CNV23–24 (Table S7)) [h] | Excretion rate constant K (mean ± SD) ([1]; FLG wt CNV23–24 (Table S9)) [h⁻¹] | Volume of central compartment (mean ± SD) ([1]; FLG wt CNV23–24 (Table S9)) [L] | Lag time (mean±SD) ([1]; FLG wt CNV23–24 carriers) [h] | Absorption rate constant (mean±SD) ([1]; FLG wt CNV23–24 carriers) | further results
COc1ccc(C(=O)c2ccccc2)c(O)c1 [Oxybenzone, (2-Hydroxy-4-methoxyphenyl)-phenylmethanone] | 0.22 ± 0.06 | 0.14 ± 0.18 | 0.05 ± 0.02 | 0.07 ± 0.01 | 0.23 ± 0.07 | 0.29 ± 0.08 | 0.10 ± 0.02 | 71.5 ± 32.4 | 0.20 ± 0.06 | 0.04 ± 0.04 | 0.05 ± 0.01 | 81.5 ± 42.7 | 0.04 ± 0.009 | 0.22 ± 0.08 | 0.13 ± 0.04 | 0.13 ± 0.17 | 0.06 ± 0.04 | 103 ± 52.36 | 0.23 ± 0.13 | 0.13 ± .04 h⁻¹ | Dermal absorption rate constant (mean ± SD) [1, 12]: 0.22 ± 0.09 h⁻¹; Lag time for dermal absorption (mean ± SD) [1, 12]: 0.13 ± 0.07 h; Mean dermal absorption rate constant higher for FLG null carriers than wt carriers with CNV23–24 ([1]; Table 2): 77%; Rate constant K21 (mean ± SD) ([1]; FLG null (Table S9)): 0.01 ± 0.006 h⁻¹; Rate constant K21 (mean ± SD) ([1]; FLG wt CNV20–22 (Table S9)): 0.01 ± 0.008 h⁻¹; Rate constant K21 (mean ± SD) ([1]; FLG wt CNV23–24 (Table S9)): 0.007 ± 0.003 h⁻¹; Rate constant K12 (mean ± SD) ([1]; FLG null (Table S9)): 0.31 ± 0.02 h⁻¹; Rate constant K12 (mean ± SD) ([1]; FLG wt CNV20–22 (Table S9)): 0.31 ± 0.02 h⁻¹; Rate constant K12 (mean ± SD) ([1]; FLG wt CNV23–24 (Table S9)): 0.32 ± 0.02 h⁻¹; Dermal absorption rate constant higher for FLG null compared with wt carriers ([1]; null vs wt grouping (Table S4)): 32%; Share of what was found in urine in the form of the parent compound, free and conjugated with glucuronic acid [2]: About 50%; Expression of estrogen receptor 1, androgen receptor, and cytochrome P450 aromatase B [3]: decreased expression; Effect in mice [4]: affect fetal growth and sex ratio
c1cc2ccc3cccc4ccc(c1)c2c34 [Pyrene, pyrene] | 0.23 ± 0.09 | 0.89 ± 0.15 | 0.17 ± 0.02 | 0.91 ± 0.12 | 0.16 ± 0.05 | 0.17 ± 0.06 | 0.88 ± 0.13 | 876 ± 344 | 0.23 ± 0.10 | 1.06 ± 0.17 | 0.18 ± 0.04 | 954 ± 410 | 1.06 ± 0.16 | 0.14 ± 0.03 | 0.14 ± 0.05 | 1.34 ± 0.32 | 0.18 ± 0.02 | 1232 ± 541 | 1.41 ± 0.29 | 0.11 ± 0.03 h⁻¹ | Dermal absorption rate constant (mean ± SD) [1, 12]: 0.15 ± 0.06 h⁻¹; Lag time for dermal absorption (mean ± SD) [1, 12]: 1.20 ± 0.25 h; Mean dermal absorption rate constant higher for FLG null carriers than wt carriers with CNV23–24 ([1]; Table 2): 45%; Rate constant K21 (mean ± SD) ([1]; FLG null (Table S9)): 0.02 ± 0.0008 h⁻¹; Rate constant K21 (mean ± SD) ([1]; FLG wt CNV20–22 (Table S9)): 0.02 ± 0.0006 h⁻¹; Rate constant K21 (mean ± SD) ([1]; FLG wt CNV23–24 (Table S9)): 0.02 ± 0.0005 h⁻¹; Rate constant K12 (mean ± SD) ([1]; FLG null (Table S9)): 0.12 ± 0.04 h⁻¹; Rate constant K12 (mean ± SD) ([1]; FLG wt CNV20–22 (Table S9)): 0.12 ± 0.03 h⁻¹; Rate constant K12 (mean ± SD) ([1]; FLG wt CNV23–24 (Table S9)): 0.11 ± 0.02 h⁻¹; tolerable daily intake (TDI) [5]: 0.03 mg/kg
Cc1cc(C)nc(Nc2ccccc2)n1 [Pyrimethanil, 4,6-dimethyl-N-phenyl-2-pyrimidinamine] |  |  |  |  |  |  |  |  |  |  |  |  |  |  |  |  |  |  |  |  | Dermal absorption rate constant higher for FLG null compared with wt carriers ([1]; human, in vivo): 18%; Mean dermal absorption rate constant higher for FLG null carriers than wt carriers with CNV23–24 ([1]; human, in vivo): 50%; aryl hydrocarbon receptor activity [6]: aryl hydrocarbon receptor agonist; Share of the compound found in urine as OH-pyrimethanil [7]: 80%; acute toxicity [8]: low acute toxicity
